Key:
FGFR3 enzyme = FGFR3 enzyme (Homo sapiens (Human), UniProt P22607); assay: FGFR Enzymatic Assay (peptide phosphorylation, FRET), FGFR3; type: biochemical; conditions: IC50 ratio showing FGFR3 selectivity; pre-incubated for 4 hours
Method: (§1) The inhibitor potency of the exemplified compounds was measured in an enzyme assay that measures peptide phosphorylation using FRET measurements to detect product formation. Inhibitors were serially diluted in DMSO and a volume of 0.5 μL was transferred to the wells of a 384-well plate.
(§2) GraphPad prism3 was used to analyze the data.

FGFR4 = FGFR4 (Homo sapiens (Human), UniProt P22455); assay: FGFR Enzymatic Assay (peptide phosphorylation, FRET), FGFR4; type: biochemical
Method: as §1
The enzymes were purchased from Millipore or Invitrogen.
as §2

[1] = IC50 ratio showing FGFR4 selectivity, pre-incubated for 4 hours
[2] = ratio of IC50 data showing FGFR4 selectivity, pre-incubated for 5 to 10 minutes

FGFR3 enzyme, sequence (P22607 23-806): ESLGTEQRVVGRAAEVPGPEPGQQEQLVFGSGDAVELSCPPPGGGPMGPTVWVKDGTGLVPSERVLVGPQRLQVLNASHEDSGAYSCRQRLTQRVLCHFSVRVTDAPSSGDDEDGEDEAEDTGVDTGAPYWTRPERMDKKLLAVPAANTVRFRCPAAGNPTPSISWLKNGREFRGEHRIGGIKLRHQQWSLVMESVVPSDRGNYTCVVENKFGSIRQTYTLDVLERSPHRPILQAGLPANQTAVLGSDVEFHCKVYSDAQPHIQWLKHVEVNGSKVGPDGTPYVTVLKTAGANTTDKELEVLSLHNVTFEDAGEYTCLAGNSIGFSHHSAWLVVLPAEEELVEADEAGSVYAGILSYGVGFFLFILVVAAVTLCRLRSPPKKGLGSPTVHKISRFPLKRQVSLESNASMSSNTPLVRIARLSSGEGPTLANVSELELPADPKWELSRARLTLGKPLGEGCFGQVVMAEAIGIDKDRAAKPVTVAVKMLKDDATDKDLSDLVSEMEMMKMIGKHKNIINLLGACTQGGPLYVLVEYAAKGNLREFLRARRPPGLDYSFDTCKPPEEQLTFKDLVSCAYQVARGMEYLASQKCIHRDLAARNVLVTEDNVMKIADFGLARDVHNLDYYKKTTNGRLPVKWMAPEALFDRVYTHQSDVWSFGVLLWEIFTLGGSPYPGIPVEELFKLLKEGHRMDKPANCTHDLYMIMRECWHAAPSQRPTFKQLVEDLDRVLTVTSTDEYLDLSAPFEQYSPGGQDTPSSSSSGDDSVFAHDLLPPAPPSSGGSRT
FGFR4, sequence (P22455 22-802): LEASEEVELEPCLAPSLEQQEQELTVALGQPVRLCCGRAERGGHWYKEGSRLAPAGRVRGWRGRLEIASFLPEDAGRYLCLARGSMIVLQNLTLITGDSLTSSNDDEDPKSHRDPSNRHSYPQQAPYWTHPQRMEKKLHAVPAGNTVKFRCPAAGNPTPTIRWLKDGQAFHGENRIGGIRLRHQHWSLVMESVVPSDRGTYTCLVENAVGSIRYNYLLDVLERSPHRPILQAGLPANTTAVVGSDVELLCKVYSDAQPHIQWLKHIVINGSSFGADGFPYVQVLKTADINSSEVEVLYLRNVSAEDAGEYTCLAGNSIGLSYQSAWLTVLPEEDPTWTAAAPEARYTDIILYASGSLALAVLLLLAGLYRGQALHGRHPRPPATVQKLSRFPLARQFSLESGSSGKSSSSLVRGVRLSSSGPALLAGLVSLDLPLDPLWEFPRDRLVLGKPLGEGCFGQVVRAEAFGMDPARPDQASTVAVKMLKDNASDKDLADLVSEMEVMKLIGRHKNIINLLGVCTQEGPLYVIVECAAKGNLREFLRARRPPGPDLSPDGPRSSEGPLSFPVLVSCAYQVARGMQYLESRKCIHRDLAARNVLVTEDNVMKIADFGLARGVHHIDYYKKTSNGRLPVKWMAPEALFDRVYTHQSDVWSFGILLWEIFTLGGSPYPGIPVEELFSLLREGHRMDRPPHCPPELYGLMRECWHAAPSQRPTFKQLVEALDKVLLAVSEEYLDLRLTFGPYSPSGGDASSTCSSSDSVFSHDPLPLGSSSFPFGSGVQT

Compound | FGFR1/FGFR3 (FGFR3 enzyme) | FGFR1/FGFR4 (FGFR4; [1]) | FGFR2/FGFR4 (FGFR4; [1]) | FGFR3/FGFR4 (FGFR4; [1]) | FGFR1/FGFR4 (FGFR4; [2]) | FGFR2/FGFR4 (FGFR4; [2]) | FGFR3/FGFR4 (FGFR4; [2])
COc1cc(OC)c(F)c(N2Cc3cnc(-c4cncc(F)c4)cc3C3(CC3)C2=O)c1F [Example 5, 2′-(2,6-difluoro-3,5-dimethoxyphenyl)-6′-(5-fluoropyridin-3-yl)-1′H-spiro[cyclopropane-1,4′-[2,7]naphthyridin]-3′(2′H)-one] | >3 | >10 | >5 | >1 | >10 | >5 | >4
COc1cc(OC)c(F)c(N2Cc3cnc(-c4cc(N)cnc4C)cc3C3(CC3)C2=O)c1F [Example 7, 6′-(5-amino-2-methylpyridin-3-yl)-2′-(2,6-difluoro-3,5-dimethoxyphenyl)-1′H-spiro[cyclopropane-1,4′-[2,7]naphthyridin]-3′(2′H)-one] | >1 | >50 | >25 | >25 | >25 | >10 | >10
COc1cc(OC)c(F)c(N2Cc3cnc(-c4cccnc4)cc3C3(CC3)C2=O)c1F [Example 9, 2′-(2,6-difluoro-3,5-dimethoxyphenyl)-6′-(pyridin-3-yl)-1′H-spiro[cyclopropane-1,4′-[2,7]naphthyridin]-3′(2′H)-one] | >3 | >10 | >1 | >1 | >5 | >1 | >1
COc1cc(OC)c(F)c(N2Cc3cnc(-c4cncc(C#N)c4)cc3C3(CC3)C2=O)c1F [Example 8, 5-(2′-(2,6-difluoro-3,5-dimethoxyphenyl)-3′-oxo-2′,3′-dihydro-1′H-spiro[cyclopropane-1,4′-[2,7]naphthyridine]-6′-yl)nicotinonitrile] | >5 | >50 | >10 | >10 | >50 | >10 | >10

From US10251892B2, “Bicyclic heterocycles as FGFR4 inhibitors” (Incyte Corporation, priority 2015, dated 2019)
